{
  "source": "ChEMBL document CHEMBL4507273",
  "about": "(2021)",
  "key": {"[1]": {"target": "Sodium-dependent serotonin transporter (Homo sapiens, UniProt P31645)", "sequence (P31645 whole entry)": "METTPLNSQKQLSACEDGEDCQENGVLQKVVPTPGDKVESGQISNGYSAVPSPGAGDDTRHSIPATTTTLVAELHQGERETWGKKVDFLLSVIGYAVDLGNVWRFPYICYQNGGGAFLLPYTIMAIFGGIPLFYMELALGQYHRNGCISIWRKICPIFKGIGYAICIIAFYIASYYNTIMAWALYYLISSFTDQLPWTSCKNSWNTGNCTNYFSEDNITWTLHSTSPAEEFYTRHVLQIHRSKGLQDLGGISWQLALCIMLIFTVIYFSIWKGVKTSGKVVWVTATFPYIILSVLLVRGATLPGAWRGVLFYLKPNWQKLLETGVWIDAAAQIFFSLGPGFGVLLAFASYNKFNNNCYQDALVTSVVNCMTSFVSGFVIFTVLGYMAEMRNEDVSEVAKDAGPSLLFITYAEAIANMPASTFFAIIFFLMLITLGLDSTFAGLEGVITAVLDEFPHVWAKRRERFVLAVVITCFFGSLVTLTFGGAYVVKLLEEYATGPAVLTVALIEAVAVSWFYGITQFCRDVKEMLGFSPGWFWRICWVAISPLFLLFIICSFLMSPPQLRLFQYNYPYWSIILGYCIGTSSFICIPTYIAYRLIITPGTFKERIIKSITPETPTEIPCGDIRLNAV", "test": "GPCRScan assay: inhibition of SERT", "set-up": "radioligand conc. used [nm] 1.5 – 2.0, parental cells stable HEK"}, "Mu-type opioid receptor": {"target": "Mu-type opioid receptor (Homo sapiens, UniProt P35372)", "sequence (P35372 whole entry)": "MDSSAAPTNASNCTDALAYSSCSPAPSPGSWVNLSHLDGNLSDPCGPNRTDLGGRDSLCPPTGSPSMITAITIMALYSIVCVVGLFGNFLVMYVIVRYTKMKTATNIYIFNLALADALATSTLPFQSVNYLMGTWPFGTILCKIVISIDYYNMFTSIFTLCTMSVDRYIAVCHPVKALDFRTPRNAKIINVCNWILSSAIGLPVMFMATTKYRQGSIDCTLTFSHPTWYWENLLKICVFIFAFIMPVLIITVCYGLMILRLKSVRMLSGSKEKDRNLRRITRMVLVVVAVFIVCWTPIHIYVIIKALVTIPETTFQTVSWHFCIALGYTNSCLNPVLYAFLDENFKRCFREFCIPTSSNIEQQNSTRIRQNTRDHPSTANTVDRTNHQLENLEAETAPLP", "test": "GPCRScan assay: inhibition of MOR", "set-up": "radioligand conc. used [nm] 1.0 – 2.0, parental cells stable HEK"}, "[2]": {"target": "Kappa-type opioid receptor (Homo sapiens, UniProt P41145)", "sequence (P41145 whole entry)": "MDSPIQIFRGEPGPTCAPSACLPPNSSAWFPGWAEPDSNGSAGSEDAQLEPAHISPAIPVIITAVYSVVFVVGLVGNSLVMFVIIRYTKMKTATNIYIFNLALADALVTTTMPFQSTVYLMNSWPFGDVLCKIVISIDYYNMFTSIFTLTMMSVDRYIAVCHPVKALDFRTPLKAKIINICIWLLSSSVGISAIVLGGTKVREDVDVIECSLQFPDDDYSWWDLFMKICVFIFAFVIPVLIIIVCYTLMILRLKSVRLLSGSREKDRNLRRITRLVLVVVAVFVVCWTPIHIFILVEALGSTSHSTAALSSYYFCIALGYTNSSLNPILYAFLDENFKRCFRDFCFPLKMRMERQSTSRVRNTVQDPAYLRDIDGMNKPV", "test": "GPCRScan assay: inhibition of KOR", "set-up": "radioligand conc. used [nm] 0.6 – 1.2, parental cells stable HEK"}, "Histamine H1 receptor": {"target": "Histamine H1 receptor (Homo sapiens, UniProt P35367)", "sequence (P35367 whole entry)": "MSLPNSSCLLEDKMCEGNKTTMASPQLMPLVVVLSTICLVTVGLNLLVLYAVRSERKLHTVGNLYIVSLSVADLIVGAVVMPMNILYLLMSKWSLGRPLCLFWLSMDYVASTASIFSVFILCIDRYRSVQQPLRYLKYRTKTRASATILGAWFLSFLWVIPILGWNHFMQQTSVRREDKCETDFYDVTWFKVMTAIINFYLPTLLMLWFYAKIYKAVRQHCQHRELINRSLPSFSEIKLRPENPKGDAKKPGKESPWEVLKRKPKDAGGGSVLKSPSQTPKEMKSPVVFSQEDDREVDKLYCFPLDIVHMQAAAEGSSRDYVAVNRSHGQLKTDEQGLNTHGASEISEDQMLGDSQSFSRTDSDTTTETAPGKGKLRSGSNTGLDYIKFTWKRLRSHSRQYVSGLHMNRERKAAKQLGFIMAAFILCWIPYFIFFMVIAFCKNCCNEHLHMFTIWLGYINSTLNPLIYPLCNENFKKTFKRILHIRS", "test": "GPCRScan assay: inhibition of H1", "set-up": "radioligand conc. used [nm] 0.6 – 2.0, parental cells stable HEK"}, "[3]": {"target": "Muscarinic acetylcholine receptor M4 (Homo sapiens, UniProt P08173)", "sequence (P08173 whole entry)": "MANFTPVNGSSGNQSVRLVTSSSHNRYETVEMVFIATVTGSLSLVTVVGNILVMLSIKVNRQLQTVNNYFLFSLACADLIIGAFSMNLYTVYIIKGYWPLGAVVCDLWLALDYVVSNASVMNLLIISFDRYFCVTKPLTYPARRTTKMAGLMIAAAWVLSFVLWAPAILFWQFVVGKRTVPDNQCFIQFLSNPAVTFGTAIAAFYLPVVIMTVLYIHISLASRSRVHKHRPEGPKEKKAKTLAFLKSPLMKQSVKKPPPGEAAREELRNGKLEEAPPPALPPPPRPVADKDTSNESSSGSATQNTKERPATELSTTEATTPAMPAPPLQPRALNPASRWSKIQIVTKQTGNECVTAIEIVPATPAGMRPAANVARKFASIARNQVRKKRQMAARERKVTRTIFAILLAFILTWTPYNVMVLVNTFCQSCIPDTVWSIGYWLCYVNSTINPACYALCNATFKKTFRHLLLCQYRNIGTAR", "test": "GPCRScan assay: inhibition of M4", "set-up": "radioligand conc. used [nm] 0.3 – 1.0, parental cells stable CHO"}, "[4]": {"target": "Delta-type opioid receptor (Homo sapiens) (UniProt P41143)", "sequence (P41143 whole entry)": "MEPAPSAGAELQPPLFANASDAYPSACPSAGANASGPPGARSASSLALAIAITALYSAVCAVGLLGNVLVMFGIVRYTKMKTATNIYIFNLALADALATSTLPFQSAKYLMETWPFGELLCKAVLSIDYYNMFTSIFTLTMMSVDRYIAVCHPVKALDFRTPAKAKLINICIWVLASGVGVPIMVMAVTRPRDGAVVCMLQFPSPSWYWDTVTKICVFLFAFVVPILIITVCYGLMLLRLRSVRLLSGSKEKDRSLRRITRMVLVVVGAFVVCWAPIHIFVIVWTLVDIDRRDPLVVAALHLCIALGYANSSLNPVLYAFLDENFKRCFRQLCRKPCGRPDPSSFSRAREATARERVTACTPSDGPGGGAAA", "conditions": "Compound concentration 10.0 uM"}, "[5]": {"target": "Muscarinic acetylcholine receptor M3 (Homo sapiens, UniProt P20309)", "sequence (P20309 whole entry)": "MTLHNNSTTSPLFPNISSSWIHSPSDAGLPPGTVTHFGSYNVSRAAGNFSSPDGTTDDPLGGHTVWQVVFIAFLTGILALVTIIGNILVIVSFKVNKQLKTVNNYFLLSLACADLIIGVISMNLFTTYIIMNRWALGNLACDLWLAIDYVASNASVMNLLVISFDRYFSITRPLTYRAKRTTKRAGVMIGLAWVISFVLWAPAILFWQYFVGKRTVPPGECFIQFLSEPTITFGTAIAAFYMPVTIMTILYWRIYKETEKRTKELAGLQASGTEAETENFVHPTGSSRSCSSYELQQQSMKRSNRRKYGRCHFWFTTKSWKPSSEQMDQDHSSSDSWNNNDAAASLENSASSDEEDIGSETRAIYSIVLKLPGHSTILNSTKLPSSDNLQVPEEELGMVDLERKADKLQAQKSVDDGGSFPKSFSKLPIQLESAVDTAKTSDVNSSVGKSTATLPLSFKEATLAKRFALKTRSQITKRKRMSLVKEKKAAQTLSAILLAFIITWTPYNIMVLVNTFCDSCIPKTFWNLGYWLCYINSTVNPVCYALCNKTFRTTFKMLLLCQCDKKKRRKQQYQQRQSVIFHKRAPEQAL", "test": "GPCRScan assay: inhibition of M3", "set-up": "radioligand conc. used [nm] 0.3 – 1.0, parental cells stable CHO"}, "[6]": {"target": "T1, Testis-specific serine/threonine-protein kinase 1 (Homo sapiens) (UniProt Q9BXA7)", "T1 sequence (whole entry)": "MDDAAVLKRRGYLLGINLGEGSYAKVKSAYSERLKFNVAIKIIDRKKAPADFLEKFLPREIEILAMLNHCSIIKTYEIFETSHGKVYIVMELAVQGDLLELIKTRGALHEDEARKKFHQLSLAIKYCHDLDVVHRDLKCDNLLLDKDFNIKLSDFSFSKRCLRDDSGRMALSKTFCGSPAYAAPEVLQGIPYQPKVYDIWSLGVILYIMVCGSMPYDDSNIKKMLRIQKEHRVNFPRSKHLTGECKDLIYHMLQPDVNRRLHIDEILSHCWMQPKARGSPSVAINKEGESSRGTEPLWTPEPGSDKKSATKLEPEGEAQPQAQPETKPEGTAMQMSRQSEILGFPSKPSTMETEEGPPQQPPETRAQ", "test": "TSSK1(h) Eurofins Kinase panel", "conditions": "Compound concentration 1.0 uM"}, "[7]": {"target": "NT-3 growth factor receptor (Homo sapiens) (UniProt Q16288)", "sequence (Q16288 32-839 limits assumed)": "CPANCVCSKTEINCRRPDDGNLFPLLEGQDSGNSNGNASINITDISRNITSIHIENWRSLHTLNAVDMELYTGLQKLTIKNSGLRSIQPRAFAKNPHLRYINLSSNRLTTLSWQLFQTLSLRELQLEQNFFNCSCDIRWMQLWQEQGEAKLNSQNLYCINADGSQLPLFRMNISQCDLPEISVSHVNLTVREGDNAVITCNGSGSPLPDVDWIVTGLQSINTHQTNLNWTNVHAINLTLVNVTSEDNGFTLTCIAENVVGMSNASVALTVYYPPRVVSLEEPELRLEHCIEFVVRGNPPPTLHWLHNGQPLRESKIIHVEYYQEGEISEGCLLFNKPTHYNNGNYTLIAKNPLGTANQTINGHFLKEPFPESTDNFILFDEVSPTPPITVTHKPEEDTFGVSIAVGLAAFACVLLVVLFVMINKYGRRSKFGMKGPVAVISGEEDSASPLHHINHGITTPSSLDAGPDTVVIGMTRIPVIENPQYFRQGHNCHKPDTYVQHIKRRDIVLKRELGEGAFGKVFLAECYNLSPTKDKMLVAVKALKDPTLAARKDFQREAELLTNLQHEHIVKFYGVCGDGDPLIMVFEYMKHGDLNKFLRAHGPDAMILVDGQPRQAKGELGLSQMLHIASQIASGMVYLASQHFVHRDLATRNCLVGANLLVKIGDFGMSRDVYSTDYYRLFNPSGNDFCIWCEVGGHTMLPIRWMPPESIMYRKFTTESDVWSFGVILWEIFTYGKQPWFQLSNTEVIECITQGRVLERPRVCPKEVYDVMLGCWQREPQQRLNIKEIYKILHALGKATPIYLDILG", "test": "TrkC(h) Eurofins Kinase panel", "conditions": "Compound concentration 1.0 uM"}, "[8]": {"target": "Tyrosine-protein kinase receptor UFO (Homo sapiens) (UniProt P30530)", "test": "Axl(h) Eurofins Kinase panel", "conditions": "Compound concentration 1.0 uM"}, "[9]": {"target": "Tyrosine-protein kinase Lyn (Homo sapiens) (UniProt P07948)", "test": "Lyn(h) Eurofins Kinase panel", "conditions": "Compound concentration 1.0 uM"}, "[10]": {"target": "Serine/threonine-protein kinase PAK 6 (Homo sapiens) (UniProt Q9NQU5)", "test": "PAK6(h) Eurofins Kinase panel", "conditions": "Compound concentration 1.0 uM"}, "Rattus norvegicus [11]": {"species": "Rattus norvegicus", "conditions": "Compound concentration 10.0 uM"}, "[12]": {"target": "T2, Alpha-2A adrenergic receptor (Homo sapiens) (UniProt P08913)", "T2 sequence (whole entry)": "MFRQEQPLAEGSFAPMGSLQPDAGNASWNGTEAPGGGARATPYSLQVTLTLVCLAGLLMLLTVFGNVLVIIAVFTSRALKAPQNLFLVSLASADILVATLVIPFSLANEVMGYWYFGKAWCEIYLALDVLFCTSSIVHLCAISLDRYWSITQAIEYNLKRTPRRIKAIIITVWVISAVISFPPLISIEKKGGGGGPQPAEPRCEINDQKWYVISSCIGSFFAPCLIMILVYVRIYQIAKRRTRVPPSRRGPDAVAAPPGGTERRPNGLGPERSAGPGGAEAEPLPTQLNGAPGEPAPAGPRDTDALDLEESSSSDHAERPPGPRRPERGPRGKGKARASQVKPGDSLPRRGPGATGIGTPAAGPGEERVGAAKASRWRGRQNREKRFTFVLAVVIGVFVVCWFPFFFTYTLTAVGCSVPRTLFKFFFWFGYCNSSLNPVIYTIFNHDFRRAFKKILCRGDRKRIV", "conditions": "Compound concentration 10.0 uM"}, "D(2) dopamine receptor": {"target": "D(2) dopamine receptor (Homo sapiens, UniProt P14416)", "sequence (P14416 whole entry)": "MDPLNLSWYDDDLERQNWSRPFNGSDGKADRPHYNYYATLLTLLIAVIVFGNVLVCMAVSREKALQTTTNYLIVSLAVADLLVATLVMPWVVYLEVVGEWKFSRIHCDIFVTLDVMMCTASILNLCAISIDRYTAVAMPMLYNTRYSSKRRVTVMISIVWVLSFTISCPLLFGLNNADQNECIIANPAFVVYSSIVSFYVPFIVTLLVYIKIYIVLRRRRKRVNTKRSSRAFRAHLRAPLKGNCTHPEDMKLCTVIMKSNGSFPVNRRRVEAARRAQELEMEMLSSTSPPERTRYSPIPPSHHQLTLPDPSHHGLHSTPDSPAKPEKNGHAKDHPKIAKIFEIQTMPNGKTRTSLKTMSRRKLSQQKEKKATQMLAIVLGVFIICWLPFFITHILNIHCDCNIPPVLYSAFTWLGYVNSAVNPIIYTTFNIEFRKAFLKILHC", "conditions": "Compound concentration 10.0 uM"}, "D(3) dopamine receptor": {"target": "D(3) dopamine receptor (Homo sapiens, UniProt P35462)", "sequence (P35462 whole entry)": "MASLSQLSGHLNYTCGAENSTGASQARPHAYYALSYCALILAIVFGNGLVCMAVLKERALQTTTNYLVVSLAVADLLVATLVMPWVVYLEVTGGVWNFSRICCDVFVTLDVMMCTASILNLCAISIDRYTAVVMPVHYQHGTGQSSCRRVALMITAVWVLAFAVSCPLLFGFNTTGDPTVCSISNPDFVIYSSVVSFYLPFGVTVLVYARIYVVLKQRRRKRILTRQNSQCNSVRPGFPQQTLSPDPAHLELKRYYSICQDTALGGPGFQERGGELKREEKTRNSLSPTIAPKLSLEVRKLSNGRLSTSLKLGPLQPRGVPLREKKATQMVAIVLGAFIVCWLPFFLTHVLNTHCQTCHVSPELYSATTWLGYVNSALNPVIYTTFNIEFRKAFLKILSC", "conditions": "Compound concentration 10.0 uM"}, "[13]": {"target": "T3, Muscarinic acetylcholine receptor M1 (Homo sapiens) (UniProt P11229)", "T3 sequence (whole entry)": "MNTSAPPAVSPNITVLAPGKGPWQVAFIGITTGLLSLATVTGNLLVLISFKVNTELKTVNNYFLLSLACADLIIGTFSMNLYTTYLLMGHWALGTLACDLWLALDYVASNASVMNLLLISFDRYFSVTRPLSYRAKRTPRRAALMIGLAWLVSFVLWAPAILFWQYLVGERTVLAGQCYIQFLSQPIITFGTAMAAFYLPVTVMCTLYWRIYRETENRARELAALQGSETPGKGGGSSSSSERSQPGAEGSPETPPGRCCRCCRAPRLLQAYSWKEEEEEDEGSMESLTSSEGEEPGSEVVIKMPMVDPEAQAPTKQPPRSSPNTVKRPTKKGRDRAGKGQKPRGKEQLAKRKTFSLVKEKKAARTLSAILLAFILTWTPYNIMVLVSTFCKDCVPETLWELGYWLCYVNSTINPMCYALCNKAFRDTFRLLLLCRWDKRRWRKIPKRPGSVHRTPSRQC", "conditions": "Compound concentration 10.0 uM"}, "[14]": {"target": "5-hydroxytryptamine receptor 2B (Homo sapiens, UniProt P41595)", "conditions": "Compound concentration 10.0 uM"}, "Rattus norvegicus [15]": {"species": "Rattus norvegicus", "conditions": "Compound concentration 10.0 uM", "remark": "listed apart in the source"}, "[16]": {"target": "T4, Alpha-2B adrenergic receptor (Homo sapiens) (UniProt P18089)", "T4 sequence (whole entry)": "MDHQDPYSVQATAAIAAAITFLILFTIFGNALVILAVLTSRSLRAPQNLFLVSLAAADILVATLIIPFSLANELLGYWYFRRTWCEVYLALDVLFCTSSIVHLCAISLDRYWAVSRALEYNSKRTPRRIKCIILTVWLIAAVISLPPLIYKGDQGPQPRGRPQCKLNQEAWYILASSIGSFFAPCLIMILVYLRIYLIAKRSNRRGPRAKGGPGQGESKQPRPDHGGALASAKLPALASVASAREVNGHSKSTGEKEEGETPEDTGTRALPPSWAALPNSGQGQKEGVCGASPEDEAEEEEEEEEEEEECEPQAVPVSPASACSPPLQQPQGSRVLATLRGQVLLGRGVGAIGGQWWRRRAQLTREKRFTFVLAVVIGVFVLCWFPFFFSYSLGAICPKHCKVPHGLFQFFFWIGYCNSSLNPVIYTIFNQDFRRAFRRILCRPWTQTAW", "conditions": "Compound concentration 10.0 uM"}},
  "data": [
    {"smiles": "CNCc1ccccc1-c1csc([C@H](C)Nc2nc(C)nc3cc(OC)c(OC)cc23)c1", "note": "[BAY-294]", "values": [
      {"measurement": "Ki", "setting": "[1]", "result": 4230, "unit": "nM"},
      {"measurement": "Ki", "setting": "Mu-type opioid receptor; read-out: Ki", "result": 854, "unit": "nM"},
      {"measurement": "Ki", "setting": "Mu-type opioid receptor; read-out: pKi (converted)", "result": 759, "unit": "nM"},
      {"measurement": "Ki", "setting": "[2]; read-out: Ki", "result": 841, "unit": "nM"},
      {"measurement": "Ki", "setting": "[2]; read-out: pKi (converted)", "result": 822, "unit": "nM"},
      {"measurement": "Ki", "setting": "Histamine H1 receptor; read-out: Ki", "result": 1370, "unit": "nM"},
      {"measurement": "Ki", "setting": "Histamine H1 receptor; read-out: pKi (converted)", "result": 1350, "unit": "nM"},
      {"measurement": "Ki", "setting": "[3]; read-out: Ki", "result": 303, "unit": "nM"},
      {"measurement": "Ki", "setting": "[3]; read-out: pKi (converted)", "result": 292, "unit": "nM"},
      {"measurement": "inhibition", "setting": "[4]", "result": 10.5, "unit": "%"}
    ]},
    {"smiles": "CNCc1ccccc1-c1csc([C@@H](C)Nc2nc(C)nc3cc(OC)c(OC)cc23)c1", "note": "[BAY-293]", "values": [
      {"measurement": "Ki", "setting": "[5]; read-out: Ki", "result": 972, "unit": "nM"},
      {"measurement": "Ki", "setting": "[5]; read-out: pKi (converted)", "result": 955, "unit": "nM"},
      {"measurement": "% residual kinase activity", "setting": "[6]", "result": 79, "unit": "%"},
      {"measurement": "% residual kinase activity", "setting": "[7]", "result": 80, "unit": "%"},
      {"measurement": "% residual kinase activity", "setting": "[8]", "result": 88, "unit": "%"},
      {"measurement": "% residual kinase activity", "setting": "[9]", "result": 88, "unit": "%"},
      {"measurement": "% residual kinase activity", "setting": "[10]", "result": 88, "unit": "%"},
      {"measurement": "inhibition", "setting": "Rattus norvegicus [11]", "result": 13.1, "unit": "%"},
      {"measurement": "inhibition", "setting": "[12]", "result": 99, "unit": "%"},
      {"measurement": "inhibition", "setting": "D(2) dopamine receptor", "result": 71, "unit": "%"},
      {"measurement": "inhibition", "setting": "D(3) dopamine receptor", "result": 88, "unit": "%"},
      {"measurement": "inhibition", "setting": "[13]", "result": 94, "unit": "%"},
      {"measurement": "inhibition", "setting": "[14]", "result": 100, "unit": "%"},
      {"measurement": "inhibition", "setting": "Rattus norvegicus [15]", "result": 71, "unit": "%"},
      {"measurement": "inhibition", "setting": "[16]", "result": 85, "unit": "%"}
    ]}
  ]
}
